Patent US12157730B2, “Heteroaryl derivative, method for producing same, and pharmaceutical composition comprising same as effective component” (VORONOI INC., priority 2019, dated 2024)

molecular target: T1, Ba/F3 cell EGFR Exon20 ins NPH (Homo sapiens, UniProt P00533, INS773NPH); experiment: Ba/F3 cell proliferation suppression, EGFR Exon20 ins NPH; assay type: cell-based; conditions: GI50 class; Ba/F3 cell line with NPH inserted at Exon20 of EGFR; 72 hours
T1 construct: expressed in transfected cells; host or cells: Ba/F3
How it was run: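 72 h compound exposure, 0.3 nM–50 um (12 points, 3:1 dilution in DMSO); viability by CellTiter-Glo luminescence. Ba/F3 medium: RPMI-1640, 10% FBS, 5 ng/ml IL-3, 1 ug/ml puromycin for transduced cells. GI50 vs control, n=3.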

Row | Ba/F3 (NPH) Activity | Compound
1 | A (GI50 < 50 nM) | C=CC(=O)Nc1cc(Nc2cc(N3OCC[C@@H]3c3ccc(F)c(F)c3F)ncn2)c(OC)cc1N1CCN(CC)CC1 [compound 570, N-(2-(4-ethylpiperazine-1-yl)-4-methoxy-5-((6-((R)-3-(2,3,4-trifluorophenyl)isoxazolidine-2-yl)pyrimidine-4-yl)amino)phenyl) acrylamide]
2 | A (GI50 < 50 nM) | C=CC(=O)Nc1cc(Nc2cc(N3OCC[C@@H]3Cc3ccccc3)ncn2)c(OC)cc1N1CC[C@@H](N(C)C)C1 [compound 964, N-(5-((6-((S)-3-benzylisoxazolidine-2-yl)pyrimidine-4-yl)amino)-2-((R)-3-(dimethylamino)pyrolidine-1-yl)-4-methoxyphenyl) acrylamide]
3 | A (GI50 < 50 nM) | C=CC(=O)Nc1cc(Nc2cc(N3OCC[C@@H]3c3cccc(F)c3Cl)ncn2)c(OC)cc1N1CCC(N2CCOCC2)CC1 [compound 598, N-(5-((6-((R)-3-(2-chloro-3-fluorophenyl)isoxazolidine-2-yl)pyrimidine-4-yl)amino)-4-methoxy-2-(4-morpholinopiperidine-1-yl)phenyl)acrylamide]
4 | A (GI50 < 50 nM) | C=CC(=O)Nc1cc(Nc2cc(N3OCC[C@@H]3c3cc(F)ccc3F)ncn2)c(OC)cc1N1CCN(C2CC2)C[C@@H]1C [compound 879, N-(2-((S)-4-cyclopropyl-2-methylpiperazine-1-yl)-5-((6-((R)-3-(2,5-difluorophenyl)isoxazolidine-2-yl)pyrimidine-4-yl)amino)-4-methoxyphenyl) acrylamide]
5 | A (GI50 < 50 nM) | C=CC(=O)Nc1cc(Nc2cc(N3OCC[C@@H]3c3ccccc3)ncn2)c(OC)cc1N1CCN(CC2CC2)CC1 [Example 277, N-(2-(4-(cyclopropylmethyl)piperazine-1-yl)-4-methoxy-5-((6-((R)-3-phenylisoxazolidine-2-yl)pyrimidine-4-yl)amino)phenyl) acrylamide]
6 | A (GI50 < 50 nM) | C=CC(=O)Nc1cc(Nc2cc(N3OCC[C@@H]3c3ccccc3)ncn2)c(OC)cc1N1CCC(N(C)CCOC)CC1 [compound 736, N-(4-methoxy-2-(4-((2-methoxyethyl) (methyl)amino)piperidine-1-yl)-5-((6-((R)-3-phenylisoxazolidine-2-yl)pyrimidine-4-yl)amino)phenyl) acrylamide]
7 | B (50 nM ≤ GI50 < 500 nM) | C=CC(=O)Nc1cc(Nc2cc(N3OCC[C@@H]3c3cccc(C#N)c3)ncn2)c(OC)cc1N1CCN(CC)CC1 [compound 396, N-(5-((6-((R)-3-(3-cyanophenyl)isoxazolidine-2-yl)pyrimidine-4-yl)amino)-2-(4-ethylpiperazine-1-yl)-4-methoxyphenyl) acrylamide]
8 | A (GI50 < 50 nM) | C=CC(=O)Nc1cc(Nc2cc(N3OCC[C@@H]3c3ccc(F)cc3F)ncn2)c(OC)cc1N1CCOCC1 [compound 325, N-(5-((6-((R)-3-(2,4-difluorophenyl)isoxazolidine-2-yl)pyrimidine-4-yl)amino)-4-methoxy-2-morpholinophenyl) acrylamide]
9 | B (50 nM ≤ GI50 < 500 nM) | C#Cc1cccc([C@H]2CCON2c2cc(Nc3cc(NC(=O)C=C)c(N4CCC(N5CCC(N(C)C)CC5)CC4)cc3OC)ncn2)c1 [compound 655, N-(2-(4-(dimethylamino)-[1,4'-bipiperidine]-1'-yl)-5-((6-((R)-3-(3-ethynylphenyl)isoxazolidine-2-yl)pyrimidine-4-yl)amino)-4-methoxyphenyl) acrylamide]
10 | A (GI50 < 50 nM) | C=CC(=O)Nc1cc(Nc2cc(N3OCC[C@@H]3c3ccc(F)c(F)c3F)ncn2)c(OC)cc1N1CCC(N2CCN(C3CC3)CC2)CC1 [Example 170, N-(2-(4-(4-cyclopropylpiperazine-1-yl)piperidine-1-yl)-4-methoxy-5-((6-((R)-3-(2,3,4-trifluorophenyl)isoxazolidine-2-yl)pyrimidine-4-yl)amino)phenyl)acrylamide]
11 | A (GI50 < 50 nM) | C=CC(=O)Nc1cc(Nc2cc(N3OCC[C@@H]3c3ccc(F)c(Cl)c3)ncn2)c(OC)cc1N1CCC(N2CCO[C@H](C)C2)CC1 [compound 874, N-(5-((6-((R)-3-(3-chloro-4-fluorophenyl)isoxazolidine-2-yl)pyrimidine-4-yl)amino)-4-methoxy-2-(4-((R)-2-methylmorpholino)piperidine-1-yl)phenyl) acrylamide]
12 | A (GI50 < 50 nM) | C=CC(=O)Nc1cc(Nc2cc(N3OCC[C@@H]3Cc3cccc(F)c3)ncn2)c(OC)cc1N(C)CCN(C)C [compound 992, N-(2-((2-(dimethylamino)ethyl) (methyl)amino)-5-((6-((S)-3-(3-fluorobenzyl)isoxazolidine-2-yl)pyrimidine-4-yl)amino)-4-methoxyphenyl) acrylamide]
13 | A (GI50 < 50 nM) | C=CC(=O)Nc1cc(Nc2cc(N3OCC[C@@H]3c3ccc(F)c(Cl)c3)ncn2)c(OC)cc1N1CCC(N2C[C@H]3CC[C@@H](C2)O3)CC1 [compound 871, N-(2-(4-((1R,5S)-8-oxa-3-azabicyclo [3.2.1]octan-3-yl)piperidine-1-yl)-5-((6-((R)-3-(3-chloro-4-fluorophenyl)isoxazolidine-2-yl)pyrimidine-4-yl)amino)-4-methoxyphenyl) acrylamide]
14 | B (50 nM ≤ GI50 < 500 nM) | C=CC(=O)Nc1cc(Nc2cc(N3OCC[C@@H]3c3c(F)ccc(F)c3F)ncn2)c(OC)cc1N1CCN(C)CC1 [compound 629, N-(4-methoxy-2-(4-methylpiperazine-1-yl)-5-((6-((R)-3-(2,3,6-trifluorophenyl)isoxazolidine-2-yl)pyrimidine-4-yl)amino)phenyl)acrylamide]
15 | A (GI50 < 50 nM) | C=CC(=O)Nc1cc(Nc2cc(N3OCC[C@@H]3c3ccc(Cl)cc3F)ncn2)c(OC)cc1N1CCC(N2CCN(CC)CC2)CC1 [compound 409, N-(5-((6-((R)-3-(4-chloro-2-fluorophenyl)isoxazolidine-2-yl)pyrimidine-4-yl)amino)-2-(4-(4-ethylpiperazine-1-yl)piperidine-1-yl)-4-methoxyphenyl) acrylamide]
16 | A (GI50 < 50 nM) | C=CC(=O)Nc1cc(Nc2cc(N3OCC[C@@H]3c3cccs3)ncn2)c(OC)cc1N1CCC(N2CCN(C3CC3)CC2)CC1 [Example 147, N-(2-(4-(4-cyclopropylpiperazine-1-yl)piperidine-1-yl)-4-methoxy-5-((6-((R)-3-(thiophene-2-yl)isoxazolidine-2-yl)pyrimidine-4-yl)amino)phenyl)acrylamide]
17 | B (50 nM ≤ GI50 < 500 nM) | C=CC(=O)Nc1cc(Nc2cc(N3OCC[C@@H]3c3cc(F)cc(F)c3)ncn2)c(OC)cc1N1CCO[C@H](C)C1 [compound 338, N-(5-((6-((R)-3-(3,5-difluorophenyl)isoxazolidine-2-yl)pyrimidine-4-yl)amino)-4-methoxy-2-((R)-2-methylmorpholino)phenyl)acrylamide]
18 | A (GI50 < 50 nM) | C=CC(=O)Nc1cc(Nc2cc(N3OCC[C@@H]3c3cccc(F)c3F)ncn2)c(OC)cc1N(C)CCN(C)C [compound 924, N-(5-((6-((R)-3-(2,3-difluorophenyl)isoxazolidine-2-yl)pyrimidine-4-yl)amino)-2-((2-(dimethylamino)ethyl)(methyl)amino)-4-methoxyphenyl) acrylamide]
19 | C (500 nM ≤ GI50 < 5000 nM) | C=CC(=O)Nc1cc(Nc2cc(N3OCC[C@@H]3Cc3cccnc3)ncn2)c(OC)cc1N1CCC(N2C[C@H]3C[C@@H]2CO3)CC1 [compound 987, N-(2-(4-((1R,4R)-2-oxa-5-azabicyclo [2.2.1]heptane-5-yl)piperidine-1-yl)-4-methoxy-5-((6-((S)-3-(pyridine-3-ylmethyl)isoxazolidine-2-yl)pyrimidine-4-yl)amino)phenyl)acrylamide]
20 | A (GI50 < 50 nM) | C=CC(=O)Nc1cc(Nc2cc(N3OCC[C@@H]3c3ccc(F)c(F)c3)ncn2)c(OC)cc1N1CCC(N2CCN(CCC)CC2)CC1 [compound 547, N-(5-((6-((R)-3-(3,4-difluorophenyl)isoxazolidine-2-yl)pyrimidine-4-yl)amino)-4-methoxy-2-(4-(4-propylpiperazine-1-yl)piperidine-1-yl)phenyl) acrylamide]
21 | A (GI50 < 50 nM) | C=CC(=O)Nc1cc(Nc2cc(N3OCC[C@@H]3c3ccc(F)c(Cl)c3)ncn2)c(OC)cc1N1CCC(N2CCN(C(C)=O)CC2)CC1 [compound 763, N-(2-(4-(4-acetylpiperazine-1-yl)piperidine-1-yl)-5-((6-((R)-3-(3-chloro-4-fluorophenyl)isoxazolidine-2-yl)pyrimidine-4-yl)amino)-4-methoxyphenyl) acrylamide]
22 | A (GI50 < 50 nM) | C=CC(=O)Nc1cc(Nc2cc(N3OCC[C@@H]3c3ccc(F)cc3)ncn2)c(OC)cc1N1CCC(N2CCOCC2)CC1 [compound 786, N-(5-((6-((R)-3-(4-fluorophenyl)isoxazolidine-2-yl)pyrimidine-4-yl)amino)-4-methoxy-2-(4-morpholinopiperidine-1-yl)phenyl)acrylamide]
23 | C (500 nM ≤ GI50 < 5000 nM) | C=CC(=O)Nc1cc(Nc2cc(N3OCC[C@H]3Cc3ccccc3)ncn2)c(OC)cc1N1CCN(CCN(C)C)CC1 [compound 976, N-(5-((6-((R)-3-benzylisoxazolidine-2-yl)pyrimidine-4-yl)amino)-2-(4-(2-(dimethylamino)ethyl)piperazine-1-yl)-4-methoxyphenyl) acrylamide]
24 | A (GI50 < 50 nM) | C=CC(=O)Nc1cc(Nc2cc(N3OCC[C@@H]3c3ccc(F)cc3F)ncn2)c(OC)cc1N1CCN(C2CC2)C[C@@H]1C [compound 474, N-(2-((S)-4-cyclopropyl-2-methylpiperazine-(2,4-1-yl)-5-((6-((R)-3-difluorophenyl)isoxazolidine-2-yl)pyrimidine-4-yl)amino)-4-methoxyphenyl) acrylamide]
